Among the data in PubChem BioAssay (NCI) are TGI values, retold here.

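Five compound concentrations were applied to cells in 96-well plates for 48 hours; endpoints were derived by simple linear interpolation of the resulting dose-response curve. TGI marks complete inhibition of growth.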

Test systems include A498 renal; ACHN renal; HCT-116 colon; HOP-62 NSCLC; K-562 leukemia; KM12 colon; MALME-3M melanoma; NCI-H460 lung; NCI-H522 lung; OVCAR-3 ovarian.
Holding throughout (experiment): NCI-60 cell line screen, 48 h

Consider `O=C(Nc1nn[nH]n1)c1nc(-c2ccccc2)cc(=O)[nH]1`, for which the TGI with A498 renal, in the assay on ACHN renal, in the assay with HCT-116 colon, in the assay on HOP-62 NSCLC, in the assay with K-562 leukemia and in the assay with KM12 colon was above 100 µM throughout. Besides, the TGI in the assay on MALME-3M melanoma, with NCI-H460 lung, with NCI-H522 lung and with OVCAR-3 ovarian was above 100 µM throughout.

On to `CCOC(=O)CCC(C(=O)OCC)n1nnc2cc(Nc3c(C)[n+]([O-])c4cc(F)c(OCC)cc4[n+]3[O-])ccc21` (stereo not given), for which the TGI in the assay with A498 renal, with ACHN renal, in the assay on HCT-116 colon, in the assay with HOP-62 NSCLC, in the assay on K-562 leukemia and with KM12 colon was above 100 µM each time. Further, the TGI in the assay with MALME-3M melanoma, in the assay on NCI-H460 lung, in the assay with NCI-H522 lung and in the assay with OVCAR-3 ovarian was above 100 µM in each case.

For `CC(CNC(N)=O)NC(N)=O` (stereo not given), the TGI in the assay on A498 renal, in the assay on ACHN renal, in the assay on HCT-116 colon, in the assay on HOP-62 NSCLC, with K-562 leukemia and in the assay on KM12 colon was above 100 µM throughout. The TGI with MALME-3M melanoma, in the assay with NCI-H460 lung, with NCI-H522 lung and with OVCAR-3 ovarian was above 100 µM throughout.

As for `CC1(C)CC[C@]2(C(=O)O)CC[C@]3(C)[C@H](C(=O)C=C4[C@@]5(C)C=C(C#N)C(=O)C(C)(C)[C@@H]5CC[C@]43C)[C@@H]2C1`, the TGI is 0.977 µM in the assay with A498 renal; 4.47 µM in the assay with ACHN renal; 4.76 µM with HCT-116 colon; 3.28 µM in the assay with HOP-62 NSCLC; 27.1 µM in the assay on K-562 leukemia; 1.61 µM with KM12 colon. The TGI in the assay on MALME-3M melanoma turned out to be 1.55 µM; in the assay with NCI-H460 lung it was 22.2 µM; in the assay with NCI-H522 lung it was 5.48 µM; in the assay on OVCAR-3 ovarian it was 0.785 µM.

With `O=C1NC(Cc2ccc(O)cc2)C(=O)NC1Cc1ccc(O)cc1` (stereo not given), the TGI in the assay on A498 renal, in the assay with ACHN renal, in the assay on HCT-116 colon, in the assay with HOP-62 NSCLC, in the assay on K-562 leukemia and with KM12 colon was above 100 µM each time. For the same compound, the TGI in the assay with MALME-3M melanoma, with NCI-H460 lung, with NCI-H522 lung and in the assay on OVCAR-3 ovarian was above 100 µM throughout.

For `CCCCCCCCC#CCCCCCCCCCC[C@@H]1C(=O)O[C@H](C)[C@@H]1O` (tested in a mixture with another compound), the TGI with A498 renal is above 100 µM; in the assay with ACHN renal, 45.2 µM; with HCT-116 colon, above 100 µM; with HOP-62 NSCLC it was 39 µM; with K-562 leukemia it was 21.4 µM; in the assay on KM12 colon, 21.9 µM. The TGI came out at 44 µM in the assay on MALME-3M melanoma, 35.8 µM in the assay on NCI-H460 lung, 18.8 µM with NCI-H522 lung and 38.6 µM with OVCAR-3 ovarian.

In the case of `CC(C)CCOC(=O)NC(Nc1ccc(F)cc1)(C(F)(F)F)C(F)(F)F`, the TGI with A498 renal, in the assay on ACHN renal, with HCT-116 colon, in the assay with HOP-62 NSCLC, in the assay with K-562 leukemia and in the assay on KM12 colon was above 100 µM each time. For the same compound, the TGI is above 100 µM with MALME-3M melanoma, above 100 µM in the assay with NCI-H460 lung, 69.4 µM in the assay with NCI-H522 lung and above 100 µM with OVCAR-3 ovarian.

In the case of `O=c1c2ccccc2nc2ccc3c(Cl)[nH][nH]c3c12`, the TGI in the assay with A498 renal, in the assay with ACHN renal, in the assay on HCT-116 colon, with HOP-62 NSCLC, with K-562 leukemia and in the assay with KM12 colon was above 100 µM in each case. The TGI in the assay with MALME-3M melanoma was 77.3 µM; in the assay with NCI-H460 lung, above 100 µM; in the assay on NCI-H522 lung it was above 83.1 µM; in the assay on OVCAR-3 ovarian it was above 100 µM.

For the compound `COc1cc2nc(-c3cccs3)nc(Nc3cccc(Cl)c3)c2cc1OC`, the TGI with A498 renal was above 100 µM; with ACHN renal, above 100 µM; in the assay with HCT-116 colon, above 100 µM; in the assay on HOP-62 NSCLC, 45.3 µM; with K-562 leukemia, above 100 µM; in the assay on KM12 colon, above 100 µM. Also, the TGI in the assay on MALME-3M melanoma, with NCI-H460 lung, in the assay with NCI-H522 lung and in the assay on OVCAR-3 ovarian was above 100 µM in each case.

For `Cc1c([C@H](C)[C@@H]2NC[C@@H](C)C[C@H]2O)ccc2c1C[C@H]1[C@H]2CC=C2C[C@@H](O)CC[C@@]21C`, the TGI is 33.6 µM with A498 renal; 37.6 µM with ACHN renal; 30.6 µM in the assay with HCT-116 colon; 96.4 µM in the assay with HOP-62 NSCLC; 40.6 µM in the assay on K-562 leukemia; 37.2 µM in the assay with KM12 colon. For the same compound, the TGI with MALME-3M melanoma came out at 36.5 µM; with NCI-H460 lung it was 41.4 µM; in the assay on NCI-H522 lung it was 36.6 µM; with OVCAR-3 ovarian, 41.5 µM.

`O=C1C2C=CC(n3[nH]c(=O)n(Cc4ccccc4)c3=O)CC2C(=O)N1c1ccc(Br)cc1` (stereo not given): the TGI with A498 renal, with ACHN renal, in the assay on HCT-116 colon, in the assay with HOP-62 NSCLC, in the assay on K-562 leukemia and in the assay on KM12 colon was above 100 µM throughout. For the same compound, the TGI in the assay with MALME-3M melanoma, with NCI-H460 lung, in the assay on NCI-H522 lung and with OVCAR-3 ovarian was above 100 µM throughout.

Turning to `O=C(OCc1ccccc1)N1CCNCCNCCN(C(=O)OCc2ccccc2)CCNCC1`, the TGI was 70.1 µM in the assay on A498 renal; above 100 µM in the assay on ACHN renal; 29.1 µM in the assay on HCT-116 colon; above 100 µM in the assay with HOP-62 NSCLC; 29.8 µM in the assay on K-562 leukemia; 70 µM in the assay with KM12 colon. Moreover, the TGI was 36.5 µM in the assay with MALME-3M melanoma, 52.1 µM in the assay with NCI-H460 lung, 31.4 µM in the assay on NCI-H522 lung and above 100 µM with OVCAR-3 ovarian.

With `CC(=O)OCC1OC(n2c(C)c(C)c(C)c(C#N)c2=S)C(OC(C)=O)C(OC(C)=O)C1OC(C)=O` (stereo not given), the TGI was above 100 µM in the assay on A498 renal; above 100 µM with ACHN renal; 67.7 µM in the assay on HCT-116 colon; 49.8 µM in the assay with HOP-62 NSCLC; above 100 µM in the assay with K-562 leukemia; above 100 µM in the assay on KM12 colon. Moreover, the TGI with MALME-3M melanoma is above 100 µM; with NCI-H460 lung, above 100 µM; in the assay with NCI-H522 lung, 69.1 µM; in the assay on OVCAR-3 ovarian, above 100 µM.
